Where two headings read alike, the source gives them in different places.
Key:
PHK = assay: Kinase screen: PBK assay (phosphorylase b peptide); format: biochemical; details: for mean activity remaining (as a percentage of the original activity), PHK: 10 micromolar compound
Description: (§1) Generally, the same procedure was used for all assays. Since the total assay volume was 25.5 microliters, 0.5 microliters of inhibitors at 51× assay concentration were added to the plates before any other addition.
(§2) The basic procedure was to add 0.5 microliters inhibitor/control in DMSO to plate. Fifteen microliters of enzyme/substrate/buffer mix were added and incubated for 5 min. Ten microliters MgATP at the relevant concentration were added and incubated for 30 min. The assay was stopped by adding 5 microliters of 3% orthophosphoric acid. The assay was transferred to a p81 filter plate and read in a scintillation counter of 30 sec/well. Note that this assay procedure was not followed for MKK1, which instead involved a two-step assay, and PKC alpha, which required the addition of lipid vesicles.
PBK assay: PBK (5-20 mU diluted in 50 mM Na-b-glycerophosphate pH 7.0, 0.1% b-mercaptoethanol) was assayed against phosphorylase b peptide ([…]) (SEQ ID NO: 14) in a final volume of 25.5 μl containing 50 mM Tris pH 8.6, 50 mM Na-b-glycerophosphate, 0.04 mM CaCl2, phosphorylase b peptide (0.196 mM), 10 mM magnesium acetate, 0.02 mM [33P-g-ATP] (500-1000 cpm/pmole) then incubated for 15 min at room temperature. Assays were stopped by addition of 5 μl of 0.5 M (3%) orthophosphoric acid and then harvested onto P81 Unifilter plates with a wash buffer of 50 mM orthophosphoric acid.

MCF-7 cell line = assay: cells; format: cell-based; details: Homo sapiens; for IC (total growth inhibition): read-out: TGI
IKKe = biological target: T1, IKKe (Homo sapiens, UniProt Q14164); assay: Kinase screen: IKKe / IKKepsilon (DU14231) assay; format: biochemical; details: 10 micromolar compound; for remaining activity at 10 µM: read-out: mean activity remaining (as a percentage of the original activity), IKKe
T1 construct: DU14231
T1 sequence (Q14164 1-716): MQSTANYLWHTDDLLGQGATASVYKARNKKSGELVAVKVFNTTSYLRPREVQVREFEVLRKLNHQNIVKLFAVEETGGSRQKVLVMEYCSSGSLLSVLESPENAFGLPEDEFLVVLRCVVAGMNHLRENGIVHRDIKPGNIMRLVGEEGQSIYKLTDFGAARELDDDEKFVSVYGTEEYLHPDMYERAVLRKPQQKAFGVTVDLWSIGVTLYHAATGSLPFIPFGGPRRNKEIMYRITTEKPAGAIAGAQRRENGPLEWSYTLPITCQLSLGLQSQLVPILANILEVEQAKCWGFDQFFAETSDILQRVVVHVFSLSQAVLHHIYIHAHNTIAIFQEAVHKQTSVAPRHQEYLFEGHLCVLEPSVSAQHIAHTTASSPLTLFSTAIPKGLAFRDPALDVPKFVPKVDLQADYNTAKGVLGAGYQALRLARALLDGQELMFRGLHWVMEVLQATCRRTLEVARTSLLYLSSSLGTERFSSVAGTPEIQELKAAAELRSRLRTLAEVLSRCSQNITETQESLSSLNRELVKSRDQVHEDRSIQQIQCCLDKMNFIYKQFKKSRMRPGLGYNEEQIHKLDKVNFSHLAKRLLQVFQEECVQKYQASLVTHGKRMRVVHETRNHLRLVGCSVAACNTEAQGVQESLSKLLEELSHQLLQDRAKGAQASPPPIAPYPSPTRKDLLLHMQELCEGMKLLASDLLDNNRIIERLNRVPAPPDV
Description: as §1, §2
(§3) IKKe assay: 5-20 mU of IKKe (diluted in 50 mM Tris (pH 7.5), 0.1 mM EGTA, 1 mg/ml BSA) was assayed against MBP in a final volume of 25.5 μl containing 50 mM Tris (pH 7.5), 0.1 mM EGTA, 0.33 mg/ml MBP, 10 mM magnesium acetate and 0.05 mM [33P-g-ATP] (500-1000 cpm/pmole) and incubated for 30 mins at room temperature. Assays were stopped by addition of 5 μl of 0.5M (3%) orthophosphoric acid. Assays were harvested onto P81 Unifilter plates using a wash buffer of 50 mM orthophosphoric acid.
as §3, with “IKKepsilon (DU14231)” for “IKKe”, “IKKepsilon (DU14231)(diluted” for “IKKe (diluted”

[1] = MCF7, 24 h, MCF-7, SRB assay, 24 hours
[2] = MCF7, MCF-7, SRB assay, 24 hours, mean of three experiments, read-out: IC50

Compound	Mean Remaining Enzyme Activity (%) (PHK; PHK, 10 μM)	LC50 (concentration causing 50% net cell kill) (MCF-7 cell line; [1]) [µM]	IC (total growth inhibition) (MCF-7 cell line; [1]) [µM]	IC50 (MCF-7 cell line; [2]) [µM]	mean activity remaining (as a percentage of the original activity), PHK (PHK) [%]	remaining activity at 10 µM (IKKe) [%]	IC50 (MCF-7 cell line; MCF7, 24 h) [µM]	mean activity remaining (as a percentage of the original activity), IKKe (IKKe) [%]
CC(C)c1cnn2c(NCc3ccccc3)cc(NCCCCCCCN)nc12 [BS-181]	49							
C=C[C@H](CO)Nc1cc(NCc2ccccc2)n2ncc(C(C)C)c2n1 [ICEC0065]		8.5	12	> 100	68	101		
CC[C@H](CO)Nc1cc(NCc2ccccc2)n2ncc(C(C)C)c2n1 [ICEC0067]			13	> 100	68	103		
CC(C)c1cnn2c(NCc3ccccc3)cc(N[C@@H](CO)[C@H](O)CO)nc12 [ICEC0318, (3S)-3-(7-(Benzylamino)-3-isopropylpyrazolo[1,5-a]pyrimidin-5-ylamino)butane-1,2,4-triol]			< 2		62	94	< 2	
CC(C)c1cnn2c(NCc3ccccc3F)cc(NCCCCCN)nc12 [ICEC-0232]					10			92
